Source: patent US20240219374A1, “A Triple Co-Culture System for Drug Screening of Patient-Derived Cancer Cells and Methods of Use” (OncoPrecision Corporation, priority 2021, published 2024)

What was measured:
[1] = test system: TC cells (human bone marrow stroma cell line HS-5, Cayenne-RFP); assay: Triple co-culture drug test (DART), flow cytometry: Tox Control cells; assay type: cell-based; settings: for cytotoxic effect on the TC cells: Example 8, FIG. 9A, Panobinostat 5 nM, Cytarabine 22 nM + Daunorubicine 41 nM, Venetoclax 1.6 μM
Description: DMSO treated wells were used as controls.

[2] = test system: PDC cells from patient OP #23 (acute myeloid leukemia); assay: Triple co-culture drug test (DART), flow cytometry: PDC cells of patient OP #23; settings: for cytotoxic effect on the PDC cells: Example 8, FIG. 9A, 6 days, Panobinostat 5 nM, Cytarabine 22 nM + Daunorubicine 41 nM, Venetoclax 1.6 μM, PDC:SC:TC 10:1:1
SC cells = assay: Magnetically printed 3D tumoroid triple co-culture, flow cytometry: SC cells; assay type: cell-based; settings: 3D tumoroids; Cytarabine 200 nM; 6 days
Description: (§1) The 3D tumoroid was formed with or without extracellular matrix (ECM) embedded in culture media. […] On day 1, when the tumoroids were in a fully compact 3D configuration, the multiwell plates containing the tumoroid replicas (1 per well) were subjected to a matrix of treatments, including mono-drugs and combinations.
(§2) Magnetically printed 3D patient-micro-avatars (PMAs) using PDCs from an AML patient were prepared. PDCs from a bone marrow aspirate were processed by Ficoll-Paque to isolate the PBMC fraction, which was printed into 3D tumoroids in co-culture with SC cells and TC cells. Particularly, 10,000 PDC cells were mixed with 3,000 SC cells, and 8,000 TC cells.
(§3) 3D tumoroids so formed were treated for 6 days with vehicle or Cytarabine at 200 nM. […] At the end of the treatment, tumoroids were analyzed first by florescence microscopy (left panel of FIG. 12B). The tumoroids were subsequentially disaggregated mechanically and analyzed by flow cytometry to quantify the surviving fraction of PDCs, SC cells, and TC cells (right panel of FIG. 12B).

TC cells = assay: Magnetically printed 3D tumoroid triple co-culture, flow cytometry: TC cells; assay type: cell-based; settings: 3D tumoroids; Cytarabine 200 nM; 6 days
Description: as §1, §2, §3

PDCs from an AML patient = assay: Magnetically printed 3D tumoroid triple co-culture, flow cytometry: PDCs; assay type: cell-based, human; settings: 3D tumoroids; Cytarabine 200 nM; 6 days; 10,000 PDC, 3,000 SC, 8,000 TC cells
Description: as §1, §2, §3

Cc1[nH]c2ccccc2c1CCNCc1ccc(/C=C/C(=O)NO)cc1 [Panobinostat]
cytotoxic effect on the TC cells ([1]; 6 days): neither the PDC cells nor the TC cells showed a response | cytotoxic effect on the PDC cells [2]: neither the PDC cells nor the TC cells showed a response

CC1(C)CCC(CN2CCN(c3ccc(C(=O)NS(=O)(=O)c4ccc(NCC5CCOCC5)c([N+](=O)[O-])c4)c(Oc4cnc5[nH]ccc5c4)c3)CC2)=C(c2ccc(Cl)cc2)C1 [Venetoclax]
cytotoxic effect on the TC cells ([1]; 6 days): no cytotoxic effect | cytotoxic activity on the TC cells ([1]; Example 9, FIG. 9C, four doses, 6 days): no cytotoxic activity | effects on the TC cells ([1]; Example 12, FIG. 11B): exerted effects | cytotoxic effect on the PDC cells [2]: strong cytotoxic effect | cytotoxic effects on the PDC cells ([2]; Example 12, FIG. 11B, top drugs alone or combined at the lowest dose, standard care in parallel): cytotoxic effects

Nc1ccn([C@@H]2O[C@H](CO)[C@@H](O)[C@@H]2O)c(=O)n1 [cytarabine, Cytarabine]
cytotoxic effects on the SC cells (SC cells): strong cytotoxic effects | cytotoxicity on the TC cells (TC cells): moderate cytotoxicity | cytotoxic effects on the cancer cells (PDCs) (PDCs from an AML patient): strong cytotoxic effects
